Experimental data as given in US4778800A, “3-oxadiazole and 3-carboxylic acid beta-carboline derivatives, and their use as psychotropic agents” (Schering Aktiengesellschaft, priority 1985, dated 1988).
In brackets after ≈: the same amount, converted by molar mass.

Tests used:
[1] = biological target: benzodiazepine receptors; assay: displacement of 3H-flunitrazepam from benzodiazepine receptors in vitro; type: binding; conditions: 3H-flunitrazepam 1.0 nM, 0° C., rat forebrain membranes, pH 7.1
[2] = tested on: benzodiazepine receptor; assay: in vivo displacement of 3H-flunitrazepam binding on the benzodiazepine receptor in live brain; conditions: mice, normally i.p.; 3H-flunitrazepam i.v. after 15 minutes; 50% reduction of specific binding in forebrain
[3] = anticonvulsive action: stopping of spasms induced by pentylenetetrazole (pentazol); type: in vivo; conditions: Mus musculus, ip, 0.5 h; mice, i.p., pentazol 150 mg/kg s.c. 15-30 minutes later; protects 50% of animals from spasms and death (Litchfield and Wilcoxon); read-out: PTZ ED50
Protocol: In the pharmacological tests, the compounds according to the invention especially show anxiolytic and anticonvulsive effectiveness. For examination of the anticonvulsive action, stopping of spasms induced by pentylenetetrazole (pentazol) was examined. Pentazol is administered subcutaneously in an amount of 150 mg/kg as a hydrochloric acid solution (pH 2-3) 15-30 minutes after the intraperitoneal application of the test substance. This amount induces clonic and tonic spasms which lead to death in untreated animals. The number of mice which show spasms and the number of them that died 30 minutes after pentazol are recorded.
The ED50 values indicated in the table were determined according to the method of Litchfield and Wilcoxon (J. Pharmacol. exp. Ther. 96 (1949) […]) as the amount of antagonistically acting substance which protects 50% of the animals from spasms and death.

Compound | IC50 in vitro [1] | ED50 in vivo [2] | ED50 [3]
CCOC(=O)c1ncc2[nH]c3ccc(C(C)SCC)cc3c2c1C (stereo not drawn) [6-CH(CH3)SC2 H5, CH3, COOC2 H5, 4-methyl-6-(1-ethylthioethyl)-beta-carboline-3-carboxylic acid ethyl ester] | 1.2 ng/mL (≈ 3.5 nM) | 0.43 mg/kg | 4 mg/kg
CCCOC(C)c1cccc2[nH]c3cnc(C(=O)OC(C)C)c(C)c3c12 (stereo not drawn) [5-CH(CH3)OC3 H7, CH3, drawing 5] | 0.75 ng/mL (≈ 2.12 nM) | 1.8 mg/kg | 0.8 mg/kg
CCOCc1cccc2[nH]c3cnc(C(=O)OCC)c(C)c3c12 [5-CH2 OC2 H5, CH3, COOC2 H5, reference compound] | 0.8 ng/mL (≈ 2.56 nM) | 1.0 mg/kg | > 100 mg/kg
CCOC(C)c1cccc2[nH]c3cnc(-c4nc(CC)no4)c(C)c3c12 (stereo not drawn) [5-CH(CH3)OC2 H5, CH3, drawing 6, 3-[5-(3-ethyl-1,2,4-oxadiazol)yl]-4-methyl-5-(1-ethoxyethyl)-beta-carboline] | 0.3 ng/mL (≈ 0.856 nM) | 0.09 mg/kg | 0.4 mg/kg
CCOC(=O)c1ncc2[nH]c3ccc(C(C)OCC(F)(F)F)cc3c2c1C (stereo not drawn) [6-CH(CH3)OCH2 CF3, CH3, COOC2 H5, 4-methyl-6-(1-(2,2,2-trifluoroethoxy)-ethyl)-beta-carboline-3-carboxylic acid ethyl ester] | 0.8 ng/mL (≈ 2.1 nM) | 1.8 mg/kg | 2.4 mg/kg
CCOC(=O)c1ncc2[nH]c3cccc(COC)c3c2c1C [5-CH2 OCH3, CH3, COOC2 H5, reference compound] | 0.45 ng/mL (≈ 1.51 nM) | 2.0 mg/kg | > 100 mg/kg
CCOC(C)c1ccc2[nH]c3cnc(-c4nc(CC)no4)c(CC)c3c2c1 (stereo not drawn) [6-CH(CH3)OC2 H5, C2 H5, drawing 9, 3-[5-(3-ethyl-1,2,4-oxadiazol)yl]-4-ethyl-6-(1-ethoxyethyl)-beta-carboline] | 0.7 ng/mL (≈ 1.92 nM) | 1.1 mg/kg | 2.3 mg/kg
CCOC(CC)c1cccc2[nH]c3cnc(-c4nc(CC)no4)c(COC)c3c12 (stereo not drawn) [5-CH(C2 H5)OC2 H5, CH2 OCH3, drawing 8] | 0.2 ng/mL (≈ 0.507 nM) | 3 mg/kg | 0.3 mg/kg
CCCOC(C)c1cccc2[nH]c3cnc(C(=O)OCC)c(C)c3c12 (stereo not drawn) [5-CH(CH3)OC3 H7, CH3, COOC2 H5, 5-(1-propoxyethyl)-4-methyl-beta-carboline-3-carboxylic acid ethyl ester] | 0.4 ng/mL (≈ 1.18 nM) | 0.6 mg/kg | 1 mg/kg
CCOC(CC)c1cccc2[nH]c3cnc(-c4nc(CC)no4)c(C)c3c12 (stereo not drawn) [5-CH(C2 H5)OC2 H5, CH3, drawing 7, 3-[5-(3-ethyl-1,2,4-oxadiazol)yl]-4-methyl-5-(1-ethoxopropyl)-beta-carboline] | 0.4 ng/mL (≈ 1.1 nM) | 3 mg/kg | 0.6 mg/kg
